The values below come from patent US8293916B2, “Diazole derivatives” (Hoffmann-La Roche Inc., priority 2004, dated 2012).

pKi: −log10 of the molar value. Read-outs that look alike come from different tables or passages of the source.

This assay has as its target T1, human mGlu 5a receptor (Homo sapiens, UniProt P41594).
T1 construct: expressed in transfected cells; host or cells: EBNA cells (transient transfection); cell membrane homogenates
In words: [3H]MPEP competition binding on membranes of EBNA cells transiently transfected with human mGlu 5a receptor. How it is done: Cell membrane homogenates were stored at −80° C. until the day of assay where upon they were thawed and resuspended and polytronised in 15 mM Tris-HCl, 120 mM NaCl, 100 mM KCl, 25 mM CaCl2, 25 mM MgCl2 binding buffer at pH 7.4 to a final assay concentration of 20 μg protein/well.
Competition experiments were performed with a fixed concentration of [^3H]MPEP (2 nM) and IC50 values of test compounds evaluated using 11 concentrations (0.3-10,000 nM).
Nonspecific binding was measured in the presence of 10 μM MPEP. The radioactivity on the filter was counted (3 min) on a Packard Top-count microplate scintillation counter with quenching correction after addition of 45 μl of microscint 40 (Canberra Packard S.A., Zürich, Switzerland) and shaking for 20 min.
The Ki value is defined by the following formula: Ki=IC50/[1+L/Kd] in which the IC50 values are those concentrations of the compounds tested which cause 50% inhibition of the competing radioligand ([^3H]MPEP). L is the concentration of radioligand used in the binding experiment and the Kd value of the radioligand is empirically determined for each batch of membranes prepared.

[1] abbreviates: competition with [3H]MPEP (2 nM), 1 h at 4° C., pH 7.4, Ki=IC50/[1+L/Kd].

T1 sequence (P41594 21-1180 isoform P41594-2 limits assumed): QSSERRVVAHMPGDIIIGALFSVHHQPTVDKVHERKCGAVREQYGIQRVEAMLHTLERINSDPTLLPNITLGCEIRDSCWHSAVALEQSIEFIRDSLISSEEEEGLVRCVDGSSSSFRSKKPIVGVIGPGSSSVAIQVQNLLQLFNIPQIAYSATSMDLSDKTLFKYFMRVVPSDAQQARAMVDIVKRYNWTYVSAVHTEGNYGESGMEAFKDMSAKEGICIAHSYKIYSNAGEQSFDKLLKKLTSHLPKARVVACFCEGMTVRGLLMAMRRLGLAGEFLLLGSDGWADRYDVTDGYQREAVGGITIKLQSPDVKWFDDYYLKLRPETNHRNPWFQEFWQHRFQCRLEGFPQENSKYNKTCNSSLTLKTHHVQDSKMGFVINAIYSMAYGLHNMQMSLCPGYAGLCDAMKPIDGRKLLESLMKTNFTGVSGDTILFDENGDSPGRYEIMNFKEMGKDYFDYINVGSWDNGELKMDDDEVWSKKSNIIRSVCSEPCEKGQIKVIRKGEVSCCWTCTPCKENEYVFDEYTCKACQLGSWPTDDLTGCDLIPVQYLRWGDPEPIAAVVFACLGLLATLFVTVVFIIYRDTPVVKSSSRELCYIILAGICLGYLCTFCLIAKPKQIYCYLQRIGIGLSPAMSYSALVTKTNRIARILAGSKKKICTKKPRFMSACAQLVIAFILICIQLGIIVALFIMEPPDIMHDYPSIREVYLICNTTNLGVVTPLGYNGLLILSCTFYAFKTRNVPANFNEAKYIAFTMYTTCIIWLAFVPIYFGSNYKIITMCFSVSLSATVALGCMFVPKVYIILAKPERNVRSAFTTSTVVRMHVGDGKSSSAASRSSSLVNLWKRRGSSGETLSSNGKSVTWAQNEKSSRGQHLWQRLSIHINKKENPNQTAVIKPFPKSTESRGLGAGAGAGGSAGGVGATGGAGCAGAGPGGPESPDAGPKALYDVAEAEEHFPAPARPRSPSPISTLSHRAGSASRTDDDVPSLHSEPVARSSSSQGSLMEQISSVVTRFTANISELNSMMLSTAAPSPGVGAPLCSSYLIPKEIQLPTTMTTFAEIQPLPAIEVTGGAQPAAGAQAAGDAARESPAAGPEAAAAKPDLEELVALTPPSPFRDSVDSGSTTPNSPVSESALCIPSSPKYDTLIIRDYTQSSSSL

For the compound `Cc1nc(C#Cc2ccnc(Cl)c2)c(C)n1-c1ccc(C(F)(F)F)cc1` [Example 13, 2-Chloro-4-[2,5-dimethyl-1-(4-trifluoromethyl-phenyl)-1H-imidazol-4-ylethynyl]-pyridine], the pKi was 7.85.

Consider `Cc1c(C#Cc2ccnc(Cl)c2)nn(C)c1-c1ccc(F)cc1` [Example 26, 2-Chloro-4-[5-(4-fluoro-phenyl)-1,4-dimethyl-1H-pyrazol-3-ylethynyl]-pyridine], for which, under setting [1], the pKi was 8.22.

As to `Cc1nc(C#Cc2ccnc(Cl)c2)c(C(F)F)n1-c1ccc(F)cc1` [Example 27, 2-Chloro-4-[5-difluoromethyl-1-(4-fluoro-phenyl)-2-methyl-1H-imidazol-4-ylethynyl]-pyridine], the pKi under setting [1] is 7.38.
